Inhibition data for 64 molecules are collected here from patent US10940139B2, “Compounds that interact with the Ras superfamily for the treatment of cancers, inflammatory diseases, rasopathies, and fibrotic disease” (Shy Therapeutics LLC, priority 2017, dated 2021).

Chain of KRas G12D/Q61H double mutant (P01116-2 other isoform, or with tags, fused parts or gaps G12D/Q61H): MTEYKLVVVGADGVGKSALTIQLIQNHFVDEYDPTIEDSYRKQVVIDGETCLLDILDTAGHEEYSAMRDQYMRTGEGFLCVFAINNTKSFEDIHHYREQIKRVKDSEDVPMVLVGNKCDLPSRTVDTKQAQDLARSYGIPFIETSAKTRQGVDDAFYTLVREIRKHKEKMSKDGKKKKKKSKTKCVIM

The first test addresses KRas G12D/Q61H double mutant (Homo sapiens (Human), UniProt P01116, G12D/Q61H). The experiment in a line: Ras GTP binding domain inhibition assay (labeled GTP). The note with it: 20 μM compound; KRas G12D/Q61H double mutant; read-out: % Inhibition at 20 μM of K-Ras mutant and wild-type protein, KRas G12D Q61H. As to the method:
Buffer-I: • 50 mM Tris, pH 7.5 • 150 mM NaCl (optional) • 1 mM MgCl2 • 1 mM DTT. • KRas G12D mutant protein was expressed as a His-tagged protein. Purified His-KRas G12D protein was diluted in buffer-I to a final concentration of 3-10 μg/ml. • 200 μl of the diluted His-KRas G12D protein was added to a nickel coated 96 well plate and incubated overnight at 4° C. • The next day, wells were washed 3× in 200 μl of Buffer-I. • Then 200 μl of Buffer-I were added to each well in the presence of 1% DMSO. • Tested compounds were added to the protein-coated wells at a concentration of 20 μM, and incubated for 3 hours at room temperature. While performing IC50 measurements a serial dilution of all tested concentrations was prepared.
Then 22 μl of Cy3-GTP or Cy5-GTP was added to each well. The labeled GTP was incubated for 45 min. at room temperature. • Following GTP incubation, wells were washed 3× in Buffer-I, and 200 μl of Buffer-I were added to each well. • Following washes, the amount of bound labeled-GTP was measured with an Eppendorf AF2200 plate reader.
By substituting KRas G12D mutant protein with KRas G12C mutant, KRas wild type, KRas Q61H mutant, KRas G12D/Q61H double mutant or KRas G12C/Q61H double mutant under the assay conditions described above, KRas G12C mutant KRas wild type, KRas Q61H mutant, KRas G12D/Q61H double mutant and KRas G12C/Q61H double mutant inhibition, respectively, were each determined.
Regarding `COC(=O)c1c(CN(C)Cc2nccn2CC(F)(F)F)nc2ccccc2c1-c1ccccc1`, the inhibition at 20 µM fell in the range of 25 to 50%.
For `CCC(C)Oc1cc(-c2nc(C3CCCN3C(=O)OC(C)(C)C)no2)ccn1` (stereo not shown), the inhibition at 20 µM was in the range of 25 to 50%.
On the same count and under the same terms, the result for `O=C(Cc1ccc2c(c1)OCCO2)Nc1nc(-c2ccccn2)cs1` [drawing 3246] reads 1 to 25%; that for `COC(=O)c1cc(NCc2cnc(C(C)(C)C)s2)ccc1Br`, 25 to 50%.
Same read-out and setting: the result for `CCOC(=O)c1ccc2c(c1)nc(C1CCN(S(=O)(=O)c3cccs3)CC1)n2CC` reads 25 to 50%; that for `O=C(NCC(F)(F)F)c1ccc(CN(Cc2cc(Cl)cc3c2OCCO3)C2CC2)cc1`, 25 to 50%.
On to `COc1ccc(C(=O)NC(C)Cc2ccc(-c3ccccc3)cc2)c(OC)c1OC` (stereo not shown), for which the inhibition at 20 µM was in the range of 25 to 50%.
In the case of `Cc1occc1C(=O)OCC(COC(=O)c1ccoc1C)NC(=O)OC(C)(C)C`, the inhibition at 20 µM fell in the range of 25 to 50%.
The same measure, in the same setting: the result for `COC(=O)c1ccc(CN2CCN(c3cccc(C(F)(F)F)c3)CC2)cc1` reads 25 to 50%.
Consider `CCN(CC)S(=O)(=O)c1ccc(C(C)NCc2ccc(Cl)s2)cc1` (stereo not shown), for which the inhibition at 20 µM fell in the range of 25 to 50%.
`Cc1nn(Cc2ccccc2Cl)c(C)c1CN(C)S(=O)(=O)c1cccs1`: the inhibition at 20 µM lay in the range of 1 to 25%.

Staying with this test, now noted: 20 μM compound; read-out: % Inhibition at 20 μM KRas G12D Q61H.
`Cc1nc(CC(C)C)sc1C(=O)Nc1nnc(-c2ccccn2)[nH]1`: the inhibition at 20 µM lay within 1 to 25%.
On the same count and under the same terms, the result for `O=C(NCc1ccccn1)c1csc(-c2ccc(Cl)cc2)n1` reads 1 to 25%.
Regarding `CCCCN(C(=O)c1cnn(-c2ccccc2)n1)c1ccccc1`, the inhibition at 20 µM fell in the range of 25 to 50%.
As to `CC(=O)Nc1cccc(CNc2cc(C)nc(-c3ccccn3)n2)c1`, the inhibition at 20 µM lay in the range of 25 to 50%.
As to `Cc1ccccc1OCCn1c(CN2CCOCC2)nc2ccccc21`, the inhibition at 20 µM was 1 to 25%.
Same read-out and setting: the result for `COc1cccc(OCCn2c(CN3CCCCC3)nc3ccccc32)c1` [drawing 3032] reads 25 to 50%; that for `Nc1nc(-c2ccccn2)nn1C(=O)Cc1csc(-c2ccccc2)n1`, 25 to 50%; that for `Cc1ccc(S(=O)(=O)Nc2ccc(OS(=O)(=O)N(C)Cc3ccccc3)cc2)cc1`, 25 to 50%.
As to `COc1ccc(S(=O)(=O)N2CCCCCC2)cc1C(=O)NCCc1ccccc1`, the inhibition at 20 µM fell in the range of 25 to 50%.
On the same count and under the same terms, the same measure for `COc1ccc2c(c1)CCC2C(=O)Nc1nc(-c2ccccn2)nc2sccc12` (stereo not shown) [drawing 2818]: 1 to 25%.
Turning to `Cc1ccccc1Oc1ncccc1NCc1csc(-c2ccccn2)n1`, the inhibition at 20 µM lay in the range of 25 to 50%.
`CSc1nnc(CN(Cc2ccccc2)Cc2ccccc2)s1`: the inhibition at 20 µM lay in the range of 25 to 50%.
As for `O=C(CSCc1ccccn1)Nc1nnc(-c2ccccn2)[nH]1`, the inhibition at 20 µM lay in the range of 25 to 50%.
As for `COCCN(CCOC)c1nc(-c2ccccn2)nc2c1CCC2`, the inhibition at 20 µM is 25 to 50%.
Turning to `Clc1ccccc1-c1nnc(CN2CCCc3ccccc32)o1`, the inhibition at 20 µM is 25 to 50%.
On to `CC(C)Cc1noc(CNc2cc(C(F)(F)F)ccc2N2CCCC2)n1`, for which the inhibition at 20 µM fell in the range of 25 to 50%.
In the case of `CCN(CC(=O)Nc1ccccc1OC)Cc1coc(-c2cccs2)n1`, the inhibition at 20 µM was 1 to 25%.
On to `O=C(c1ccc(COc2ccccc2)o1)N1CCCc2ccc(F)cc21`, for which the inhibition at 20 µM lay in the range of 25 to 50%.
Take `O=C(c1csc2c(O)nc(-c3ccccn3)nc12)N1CCN(c2cccc(Cl)c2)CC1` [drawing 2719]: the inhibition at 20 µM was 25 to 50%.
In the case of `CC(=O)Nc1ccc(C(F)(F)F)cc1NCc1nc(C)no1`, the inhibition at 20 µM fell in the range of 1 to 25%.
As for `Cc1nc(C2CCCN2c2nccc(C(F)(F)F)n2)no1` (stereo not shown), the inhibition at 20 µM lay within 25 to 50%.
Turning to `COc1ccccc1-c1nnc(CNc2ccc(Cl)cc2Cl)o1`, the inhibition at 20 µM was in the range of 1 to 25%.
As to `COCc1ccc(C(=O)N(Cc2cccs2)Cc2ccccc2OC)cc1`, the inhibition at 20 µM lay in the range of 1 to 25%.
Regarding `Cc1csc(C2CN(Cc3ccn(C)c(=O)c3)CCO2)n1` (stereo not shown), the inhibition at 20 µM fell in the range of 1 to 25%.
For `Cc1cccc(C)c1Oc1ccccc1NCc1nc(C2CC2)no1`, the inhibition at 20 µM fell in the range of 25 to 50%.
As for `CN(Cc1ccc(C(=O)NCC(F)(F)F)cc1)Cc1ccc([N+](=O)[O-])cc1`, the inhibition at 20 µM was 25 to 50%.
The same measure, in the same setting: the same measure for `C=CCc1ccc(OCCn2c(CN3CCOCC3)nc3ccccc32)c(OC)c1`: 25 to 50%; for `CCOC(=O)c1sc(N(C2CC2)S(=O)(=O)c2ccc(OC)c(C)c2)nc1C`: 1 to 25%.
Consider `CCOCCC1CCN(C(=O)c2csc3c(O)nc(N)nc23)CC1` [drawing 2660], for which the inhibition at 20 µM was in the range of 1 to 25%.
On to `Cc1cc(C)n(CCCNC(=O)c2cc(S(=O)(=O)N3CCOCC3)ccc2N2CCCC2)n1`, for which the inhibition at 20 µM lay in the range of 25 to 50%.
In the case of `Nc1nc(-c2ccccn2)nc2scc(-c3ccccc3)c12` [drawing 2822], the inhibition at 20 µM is 1 to 25%.
`Cc1ccccc1CC(=O)Nc1nnc(-c2ccccn2)[nH]1`: the inhibition at 20 µM lay within 25 to 50%.
Same read-out and setting: the same measure for `CC1(C)NC(=O)N(CC(=O)Nc2nc(-c3ccccn3)cs2)C1=O`: 1 to 25%.
Same read-out and setting: the result for `Nc1nc(O)c2scc(C(=O)N3CCN(c4ccncc4)CC3)c2n1` reads 25 to 50%.
Still for that read-out and setting: the result for `CC(C)c1ccc2nc(-c3ccccn3)[nH]c(=O)c2c1` reads 25 to 50%.
As to `CCN(CC(=O)Nc1ccc(OC)cc1)Cc1coc(-c2ccc(C)cc2C)n1`, the inhibition at 20 µM lay within 25 to 50%.
Take `Nc1nc(O)c2scc(C(=O)N(CCO)CCOCCO)c2n1` [drawing 2669]: the inhibition at 20 µM lay within 1 to 25%.
Take `O=C(Cc1ccc(OC(F)(F)F)cc1)Nc1nnc(-c2ccccn2)[nH]1`: the inhibition at 20 µM was in the range of 25 to 50%.
On to `O=C(COCC1CC1)Nc1nnc(-c2ccccn2)[nH]1`, for which the inhibition at 20 µM lay within 25 to 50%.
Still for that read-out and setting: the result for `Cc1cc(C)n2nc(CC(=O)N(Cc3ccc(F)cc3)C3CC3)nc2n1` reads 1 to 25%.
As to `CN(Cc1ccc(Br)cc1)Cc1ccc(C(=O)NCC(F)(F)F)cc1`, the inhibition at 20 µM was 1 to 25%.
On to `COC(=O)CCN(Cc1ccc(F)c(F)c1)c1nc(C(F)(F)F)ccc1C#N`, for which the inhibition at 20 µM fell in the range of 25 to 50%.
On the same count and under the same terms, the result for `O=C(c1csc2c(O)nc(-c3ccccn3)nc12)N1CCNC(c2cccc(F)c2)C1` (stereo not shown) [drawing 2737] reads 25 to 50%; that for `Cc1cc(C)n2nc(CC(=O)N(Cc3ccccc3F)C3CC3)nc2n1`, 25 to 50%.

Still in this test, the particulars now being: 20 μM; read-out: KRas G12D Q61H % Inh.
On to `Cc1oc(-c2ccccc2)nc1C(=O)Nc1nnc(-c2ccccn2)[nH]1` [drawing 2463], for which the inhibition at 20 µM lay in the range of 51 to 75%.
On the same count and under the same terms, the result for `O=C(CCNC(=O)c1ccco1)Nc1nnc(-c2ccccn2)[nH]1` [drawing 2503] reads 51 to 75%.
For the molecule `O=C(Cn1c(=O)[nH]c2ccccc21)Nc1nnc(-c2ccccn2)[nH]1` [drawing 2536], the inhibition at 20 µM lay within 51 to 75%.
Turning to `COc1ccccc1-c1cc(C(=O)Nc2nnc(-c3ccccn3)[nH]2)no1` [drawing 2539], the inhibition at 20 µM lay within 51 to 75%.
On the same count and under the same terms, the result for `O=C(Nc1nnc(-c2ccccn2)[nH]1)c1ccc(=O)n(CCOc2ccccc2)n1` [drawing 2553] reads 51 to 75%; that for `O=C(COc1ccc2c(c1)CCC2)Nc1nnc(-c2ccccn2)[nH]1` [drawing 2526], 51 to 75%.
The same measure, in the same setting: the same measure for `CC(C)(C)c1nc(C(=O)Nc2nnc(-c3ccccn3)[nH]2)cs1` [drawing 2543]: 51 to 75%; for `O=C(Nc1nnc(-c2ccccn2)[nH]1)C1CCCN(c2ncccn2)C1` (stereo not shown) [drawing 2514]: 51 to 75%.
On the same count and under the same terms, the same measure for `O=C(Cc1ccc(F)cc1)Nc1nnc(-c2ccccn2)[nH]1` [drawing 2515]: 51 to 75%.
